# Measurements taken from patent US8691528B2, “Cell penetrating peptide” (Mitsubishi Tanabe Pharma Corporation, priority 2005, dated 2014).
# How the values were obtained:
# Type in all cases: cell-based
# HeLa cells = experiment: Confocal microscopic analysis of intracellular translocation of synthetic peptides in HeLa cells; settings: for intracellular translocation in HeLa cells (modified peptides with better translocation): confocal microscopic analysis
# Description: (§1) Three kinds of cells were used for incorporating the peptides: CHO cells (ATCC NO. CCL-61), HeLa cells, and Jurkat cells. 10^4 CHO cells and HeLa cells and 10^5 Jurkat cells were separately inoculated to a 96-well plate, and cultured for 2 or 3 days. Subsequently, when the cells became confluent, each peptide solution was added to each type of cell, and the cells were incubated for 1 hour. After each type of cell was washed with PBS three times, 100 μL of 0.25% trypsin-1 mM EDTA solution was added, and trypsinization was performed at room temperature for 5 minutes. After 400 μL of PBS (10% FCS) was added to neutralize the trypsin, the cells were washed with 1 mL of HBSS (Hanks' Balanced Salt Solution/produced by Invitrogen) three times. After the washing, the cells were suspended in 50 μL of HBSS and analyzed using a confocal microscope. Measurements and analysis were performed using a confocal differential interference laser microscope system (Bio-Rad, Radience2100/Green He-Ne, 488 nm, microscope: Nikon, ECLIPSE E600).
# In HeLa cells as with CHO cells, intracellular translocation experiments of synthetic peptides of modified PTD sequences were performed by confocal microscopic analysis.
# Jurkat cells = experiment: Confocal microscopic analysis of intracellular translocation of synthetic peptides in Jurkat cells
# Description: as §1
# In Jurkat cells as well, intracellular translocation experiments of synthetic peptides of modified PTD sequences were performed by confocal microscopic analysis.
# CHO cells [1] = experiment: Test of translocation of fluorescence-labeled peptides into CHO cells (FACS and confocal microscopic analysis)
# Description: Each peptide solution, adjusted to 1 mM, was diluted with a medium to three levels, 100 μM, 50 μM, and 25 μM, and added to cells. Three kinds of cells were used: CHO cells, HeLa cells, and Jurkat cells. After each peptide solution was added, the cells were incubated for 1 hour. After the cells were washed with PBS three times, 100 μL of 0.25% trypsin-1 mM EDTA solution was added, and trypsinization was performed at room temperature for 5 minutes. After 400 μL of PBS (10% FCS) was added to stop the trypsinization, the cells were washed with 1 mL of HBSS three times. After the washing, the cells were suspended in 500 μL of PBS (10% FCS) and subjected to flowcytometry (hereinafter, FACS) analysis using FACS Calibur (Becton Dickinson).
# Each peptide was synthesized, fluorescently labeled, purified and dissolved in the same manner as Example 1-2, a test of translocation into CHO cells was performed, and an evaluation was performed by confocal microscopic analysis and FACS. FACS analysis was performed in the same manner as Example 1-3. For the KSH1 peptide and modified PTD sequences, i.e., KSH1-1 to KSH1-9 peptides (SEQ ID NOS:1 to 9 in the sequence listing), fluorescence intensities determined by FACS analysis are shown in FIG. 6. The peptide addition concentrations were 50 μM, 25 μM, 12.5 μM and 6.5 μM.
# To determine which amino acids are important to the intracellular translocation, comprehensive alanine substitution was performed on the basis of KSH1-1 to design KSH1-11 (SEQ ID NO:11 in the sequence listing) to KSH1-23 (SEQ ID NO:22 in the sequence listing) and KSH1-35 (SEQ ID NO:32 in the sequence listing) (FIG. 7). Each peptide was synthesized, fluorescently labeled, purified and dissolved in the same manner as Example 1-2, a test of translocation into CHO cells was performed, and an evaluation was performed by confocal microscopic analysis and FACS. FACS analysis was performed in the same manner as Example 1-3. For KSH1 and modified PTD sequences, i.e., KSH11-11 to 23 and KSH1-35, fluorescence intensities determined by FACS analysis are shown in FIG. 8. The peptide addition concentrations were 50 μM, 25 μM, 12.5 μM and 6.5 μM.
# Each peptide was synthesized, fluorescently labeled, purified and dissolved in the same manner as Example 1-2, a test of translocation into CHO cells was performed, and an evaluation was performed by confocal microscopic analysis and FACS analysis. FACS analysis was performed in the same manner as Example 1-3. For KSH1 and modified PTD sequences, i.e., KSH11-24 to 1-26 and KSH1-28 to 1-30, fluorescence intensities determined by FACS analysis are shown in FIG. 10. The peptide addition concentrations were 50 μM, 25 μM, 12.5 μM and 6.5 μM.
# Each peptide was synthesized, fluorescently labeled, purified and dissolved in the same manner as Example 1-2, a test of translocation into CHO cells was performed, and an evaluation was performed by confocal microscopic analysis and FACS analysis. FACS analysis was performed in the same manner as Example 1-3. For KSH1 and modified PTD sequences, i.e., KSH1-27, KSH1-33, KSH1-34 and KSH1-36, fluorescence intensities determined by FACS analysis are shown in FIG. 12. The peptide addition concentrations were 50 μM, 25 μM, 12.5 μM and 6.5 μM.
# Each peptide was synthesized, fluorescently labeled, purified and dissolved in the same manner as Example 1-2, and an intracellular translocation test in CHO cells was performed by FACS analysis. Used for positive control were a PTD sequence derived from HIV TAT ([…] in the sequence listing) and the KSH1 peptide; used for negative control was a peptide sequence lacking intracellular transferability (SEQ ID NO:57 in the sequence listing).
# CHO cells [2] = experiment: as above; settings: FACS; 6.25 μM
# [3] = system: CHO cells, HeLa cells, and Jurkat cells; experiment: Confocal microscopic analysis of intracellular translocation of fluorescence-labeled peptides; settings: fluorescence-labeled peptide, confocal microscope
# From the text: With the PTD derived from HIV TAT protein shown by SEQ ID NO:50 in the sequence listing as the positive control (in FIG. 1 to FIG. 3, denoted by “Positive” or “TAT”), and a mutant of the TAT-derived PTD shown by SEQ ID NO:51 in the sequence listing, reported by Ulo Langel et al. (Cell-Penetrating Peptides: Processes and Applications, Series: Pharmacology and Toxicology: Basic and Clinical Aspects Volume:3, 2002), as the negative control (in FIG. 1, denoted by “Negative”), the peptides of the 11 sequences selected in Example 1-1 were evaluated.
# The peptides of the 11 sequences selected in Example 1-1 were synthesized by the solid phase method, and fluorescently labeled by coupling 5,6-Carboxyfluorescein to the N-terminus of each peptide. Furthermore, the peptides were purified by HPLC to obtain a purity of 70% or more. Subsequently, each fluorescently labeled peptide was dissolved in 10% Dimethyl Sulfoxide (DMSO) to obtain 1 mM (hereinafter referred to as peptide solution).
# as §1
# Of the novel PTD sequences found in Example 5, the KSH2 peptide is highly capable of translocating eGFP into cells; an attempt was made to modify the KSH2 peptide. The KSH2-1 to KSH2-4 peptides (SEQ ID NOS:44 to 47 in the sequence listing) were synthesized, fluorescently labeled, purified and dissolved in the same manner as Example 1-2, a test of translocation into CHO cells was performed, and confocal microscopic analysis was performed.
# First, two cases were examined: two cysteines were substituted with alanine (KSH2-1) or with tryptophan (KSH2-2). FITC-labeled peptides were synthesized, and their intracellular translocation efficiencies were examined using CHO, HeLa, and Jurkat cells (FIG. 21, the peptide addition concentration was 50 μM, 25 μM or 12.5 μM).
# CHO cells [4] = experiment: Confocal microscopic analysis of translocation of fluorescence-labeled peptides into CHO cells; settings: for intracellular translocation profile compared with PTD1: Example 5-2, 50 μM to 12.5 μM (FIG. 19: 25 μM)
# Description: as §1
# Furthermore, CHO cells were inoculated to a slide chamber (produced by Nunc), 25 μM of each of the KSH1 peptide and positive control was added to the CHO cells, and the intracellular transferability thereof was determined using a confocal microscope.
# For KSH2 to KSH10 (SEQ ID NOS:35 to 43 in the sequence listing), a test of translocation into CHO cells was performed in the same manner as Example 1-2, and confocal microscopic analysis was performed. Used for positive control were a PTD sequence derived from HIV TAT (SEQ ID NO:50 in the sequence listing) and the KSH1 peptide; used for negative control was a peptide sequence lacking intracellular transferability (SEQ ID NO:57 in the sequence listing).
# In the confocal microscopic analysis, a background correction was performed using cells to which the negative control peptide (SEQ ID NO:57 in the sequence listing) had been added. Thereafter, the positive control PTD1 peptide (SEQ ID NO:50 in the sequence listing) was added, and fluorescence in the cells was examined.
# Regarding novel PTD sequence, each peptide was analyzed in a series of 2-fold dilutions at three levels from 50 μM to 12.5 μM. […] The PTD candidate sequences identified here clearly retained the capability of intracellular translocation.
# [5] = 50 μM, 25 μM, 12.5 μM and 6.5 μM
substance,measurement,setting,value
KSH1-1: KSH1 with the lysine of the lysine/arginine cluster substituted with arginine (RLWMRWYSPTTRRYG; Designed peptide to act as PTD(Protein Transduction Domain)),intracellular translocation in HeLa cells (modified peptides with better translocation),HeLa cells,better intracellular translocation
same,intracellular translocation in Jurkat cells as compared to that of SEQ ID NO:37,Jurkat cells,better intracellular translocation
same,intracellular translocation compared with KSH1 (in words),CHO cells [1]; [5],clearly accentuated intracellular translocation
same,intracellular translocation compared with KSH1,"CHO cells [1]; FACS, 12.5 μM",about 8 times
same,intracellular translocation compared with KSH1,"CHO cells [1]; FACS, 25 μM",about 2 times
same,decrease of translocation efficiency compared with KSH1,"CHO cells [1]; FACS, 50 μM",about 20%
same,intracellular translocation compared with KSH1,CHO cells [2],about 2 times
KSH1-33: 13th arginine substituted with alanine and 10th threonine substituted with arginine (RLWMRWYSPRTRAYG; Designed peptide to act as PTD(Protein Transduction Domain)),intracellular translocation in HeLa cells (modified peptides with better translocation),HeLa cells,better intracellular translocation
same,intracellular translocation in Jurkat cells as compared to that of SEQ ID NO:37,Jurkat cells,better intracellular translocation
same,intracellular translocation compared with KSH1 (in words),CHO cells [1]; [5],clearly accentuated intracellular translocation
same,intracellular translocation compared with KSH1-1 (in words),CHO cells [1]; [5],nearly equivalent or more than KSH1-1
KSH1: novel PTD candidate sequence of 15 amino acids selected from the random peptide library (KLWMRWYSPTTRRYG; Designed peptide to act as PTD(Protein Transduction Domain)),localization of the intracellularly transported peptide,[3],detected both in the nucleus and in cytoplasm
same,fluorescence from the peptide in the cells,[3]; incubated 1 hour,fluorescence from the KSH1 peptide was observed
same,"fluorescence intensity compared with the positive control (PTD derived from HIV TAT, SEQ ID NO:50)",[3]; incubated 1 hour,higher than the fluorescence intensity of the positive control
same,intracellular transferability among the peptides of the 11 selected sequences,[3]; incubated 1 hour,highest intracellular transferability
same,translocation into CHO cells,"CHO cells [4]; slide chamber, 25 μM",translocated into all CHO cells
KSH2: novel PTD sequence from the 7-time-concentrated library of Jurkat cells (WKCRRQCFRVLHHWN; Designed peptide to act as PTD(Protein Transduction Domain)),intracellular translocation profile compared with PTD1,CHO cells [4],better intracellular translocation profiles than PTD1
same,localization of the peptide in HeLa cells,HeLa cells; Example 5-2,localized as fringing the surface of the cell membrane
KSH3: novel PTD sequence from the 7-time-concentrated library of Jurkat cells (IPSRWKDQFWKRWHY; Designed peptide to act as PTD(Protein Transduction Domain)),intracellular translocation profile compared with PTD1,CHO cells [4],better intracellular translocation profiles than PTD1
KSH4: novel PTD sequence from the 7-time-concentrated library of Jurkat cells (KNAWKHSSCHHRHQI; Designed peptide to act as PTD(Protein Transduction Domain)),intracellular translocation profile compared with PTD1,CHO cells [4],better intracellular translocation profiles than PTD1
KSH6: novel PTD sequence from the 7-time-concentrated library of Jurkat cells (LITKQYRYPSRRRFN; Designed peptide to act as PTD(Protein Transduction Domain)),intracellular translocation profile compared with PTD1,CHO cells [4],better intracellular translocation profiles than PTD1
KSH7: novel PTD sequence from the 7-time-concentrated library of Jurkat cells (QQHLLIAINGYPRYN; Designed peptide to act as PTD(Protein Transduction Domain)),intracellular translocation profile compared with PTD1,CHO cells [4],better intracellular translocation profiles than PTD1
KSH10: novel PTD sequence from the 7-time-concentrated library of Jurkat cells (KRPTMRFRYTWNPMK; Designed peptide to act as PTD(Protein Transduction Domain)),intracellular translocation profile compared with PTD1,CHO cells [4],better intracellular translocation profiles than PTD1
